Patent publication US20260198495A1, “BINARY INSECTICIDE COMPOSITION AND USE THEREOF” (SHENYANG SINOCHEM AGROCHEMICALS R & D CO., LTD., priority 2022, published 2026)
≈ marks a conversion by molar mass, not a printed value.

Columns and labels:
Assay type in all cases: in vivo
[1] = system: 3rd-instar larvae of Ostrinia furnacalis Guenee; experiment: Joint toxicity of I-72 + lambda-cyhalothrin, Example 42, Table 42; conditions: in Zea mays, 72 h
Procedure: Test target: 3rd-instar larvae of Ostrinia furnacalis Guenee.
(§1) Preparation of the pesticide solution: according to different test requirements, the test samples were accurately weighed respectively with an electronic analytical balance. The technical pesticides were dissolved in acetone, and then diluted with 0.1% Tween 80 water into a series of pesticide solutions with a certain concentration gradient according to the experimental design dosage.
(§2) Experimental method: first, tender corn stems were selected and dipped in the prepared pesticide solution for 10 s in the order from low dosage to high dosage according to the experimental design. After natural air-drying in the shade, they were placed in a 9-cm-diameter Petri dish with filter paper, and uniform and healthy test insects were introduced, with 10 insects for each treatment and 3 replicates for each treatment. In addition, a blank control was set up.
(§3) The treated test materials were placed in an observation room, and the temperature, humidity and illumination of the observation room could be adjusted as needed. The number of dead and live insects was investigated 72 hours later. […] Then, the co-toxicity coefficient of each ratio was calculated using the Sun Y-P method to evaluate the mixing effect (the same as in Example 1).

[2] = system: adult Phyllotreta vittuta Fabr.; experiment: Joint toxicity of I-72 + acetamiprid, Example 65, Table 65; conditions: 72 h
Procedure: (§4) Test target: adult Phyllotreta vittuta Fabr.
as §1
(§5) Experimental method: first, uniform and consistent potted cabbage seedlings were selected. Then, uniform spraying was performed with the pesticide solution in the order from low dosage to high dosage according to the experimental design. After air-drying in the shade, adult flea beetles were transferred onto the treated cabbage seedlings, and then glass covers were put on them, with about 30-40 adult flea beetles on each seedling and 3 replicates for each treatment. In addition, a blank control was set up.
(§6) The treated test materials were placed in an observation room, and the temperature, humidity and illumination of the observation room could be adjusted as needed. The number of dead and live insects was investigated 72 hours later.

[3] = system: Nilaparvata lugens (Stal) nymphs; experiment: Joint toxicity of I-72 + buprofezin, Example 52, Table 52; conditions: 72 h
Procedure: (§7) Test target: Nilaparvata lugens (Stal) nymphs, a sensitive strain reared indoors.
as §1
(§8) Experimental method: the activity of the mixture against the Nilaparvata lugens (Stal) nymphs was determined by adopting the potted-seedling spraying method. First, rice seedlings were planted in culture pots. Uniform spraying was performed with the pesticide solution in the order from low dosage to high dosage according to the experimental design, with 2 mL for each seedling. Then, Nilaparvata lugens nymphs of uniform size were transferred onto the rice seedlings, with 3 replicates for each treatment. In addition, a blank control was set up.
(§9) The treated test materials were placed in an observation room, and the temperature, humidity and illumination of the observation room could be adjusted as needed. The number of dead and live insects was investigated 72 hours later. […] Then, the co-toxicity coefficient of each ratio was calculated using the Sun Y-P method to evaluate the mixing effect, as in Example 1.

[4] = system: 3rd-instar larvae of Chilo suppressalis (Walker); experiment: Joint toxicity of I-72 + chlorantraniliprole, Example 57, Table 57; conditions: in Oryza sativa, 72 h
Procedure: (§10) Test target: 3rd-instar larvae of Chilo suppressalis (Walker).
as §1
Experimental method: first, tender rice stems were selected and dipped in the prepared pesticide solution for 10 s in the order from low dosage to high dosage according to the experimental design. After natural air-drying in the shade, they were placed in a 9-cm-diameter Petri dish with filter paper, and uniform and healthy test insects were introduced, with 10 insects for each treatment and 3 replicates for each treatment. In addition, a blank control (CK) was set up.
as §9

[5] = system: Myzus persicae (Sulzer) nymphs; experiment: whole plant or invertebrate; conditions: in Brassica oleracea, 48 h
Procedure: (§11) Test target: Myzus persicae (Sulzer) nymphs, a sensitive strain reared indoors.
as §1
(§12) Experimental method: first, cabbage leaves with uniform and consistent Myzus persicae (Sulzer) were selected, with about 30-40 insects on each leaf. Then, they were evenly sprayed with the pesticide solution in the order from low dosage to high dosage according to the experimental design, with 1.5 mL of the solution for each leaf and 3 replicates for each treatment. In addition, a blank control was set up.
The treated test materials were placed in an observation room, and the temperature, humidity and illumination of the observation room could be adjusted as needed. The number of dead and live insects was investigated 48 hours later.

[6] = system: Myzus persicae (Sulzer) nymphs; experiment: Joint toxicity of I-72 + cyantraniliprole, Example 59, Table 59; conditions: in Brassica oleracea, 48 h
Procedure: as §11, §1, §12
(§13) The treated test materials were placed in an observation room, and the temperature, humidity and illumination of the observation room could be adjusted as needed. The number of dead and live insects was investigated 48 hours later. […] Then, the co-toxicity coefficient of each ratio was calculated using the Sun Y-P method to evaluate the mixing effect (the same as in Example 1).

[7] = system: adult Phyllotreta vittuta Fabr.; experiment: Joint toxicity of I-72 + cyantraniliprole, Example 63, Table 63; conditions: 72 h
Procedure: as §4, §1, §5, §3

[8] = system: Liriomyza sativae Blanchard larvae; experiment: Joint toxicity of I-72 + cyromazine, Example 55, Table 55; conditions: in Phaseolus vulgaris
Procedure: Test target: Liriomyza sativae Blanchard larvae.
as §1
Experimental method: first, kidney bean seedlings with the Liriomyza sativae Blanchard larvae (the larvae had just invaded and formed mines) were selected. Spraying treatments were performed in the order from low dosage to high dosage according to the experimental design, with 3 replicates for each treatment. In addition, a blank control was set up.
The treated test materials were placed in an observation room, and the temperature, humidity and illumination of the observation room could be adjusted as needed. After the larvae in the blank control group pupated, the numbers of dead and live insects were then counted. […] Then, the co-toxicity coefficient of each ratio was calculated using the Sun Y-P method to evaluate the mixing effect (the same as in Example 1).

[9] = system: adult Phyllotreta vittuta Fabr.; experiment: Joint toxicity of I-72 + deltamethrin, Example 45, Table 45; conditions: 72 h
Procedure: as §4, §1, §5, §3

[10] = system: Nilaparvata lugens (Stal) nymphs; experiment: Joint toxicity of I-72 + etofenprox, Example 44, Table 44; conditions: in Oryza sativa, 72 h
Procedure: as §7, §1, §8, §3

[11] = system: Myzus persicae (Sulzer) nymphs; experiment: Joint toxicity of I-72 + fenvalerate, Example 46, Table 46; conditions: in Brassica oleracea, 48 h
Procedure: as §11, §1, §12, §13

[12] = system: 3-instar larvae of Ostrinia furnacnlis Guenee; experiment: Joint toxicity of I-72 + flubendiamide, Example 61, Table 61; conditions: in Zea mays, 72 h
Procedure: Test target: 3-instar larvae of Ostrinia furnacnlis Guenee.
as §1, §2, §3

[13] = system: 2nd-instar larvae of Mythimna separata; experiment: Joint toxicity of I-72 + hexaflumuron, Example 56, Table 56; conditions: in Zea mays, foliar, 72 h
Procedure: Test target: 2nd-instar larvae of Mythimna separata.
as §1
Experimental method: first, corn leaves were selected and dipped in the prepared pesticide solution for 10 s in the order from low dosage to high dosage according to the experimental design. After natural air-drying in the shade, they were placed in a 9-cm-diameter Petri dish with filter paper, and uniform and healthy test insects were introduced, with 10 insects for each treatment and 3 replicates for each treatment. In addition, a blank control was set up.
as §3

[14] = system: 2nd-instar larvae of Spodoptera exigua Hübner; experiment: Joint toxicity of I-72 + lufenuron, Example 54, Table 54; conditions: in Brassica oleracea, foliar, 72 h
Procedure: (§14) Test target: 2nd-instar larvae of Spodoptera exigua Hübner.
as §1
(§15) Experimental method: first, cabbage leaves were selected and dipped in the prepared pesticide solution for 10 s in the order from low dosage to high dosage according to the experimental design. After natural air-drying in the shade, they were placed in a 9-cm-diameter Petri dish with filter paper, and uniform and healthy test insects were introduced, with 10 insects for each treatment and 3 replicates for each treatment. In addition, a blank control was set up.
as §3

[15] = system: 3rd-instar larvae of Chilo suppressalis (Walker); experiment: Joint toxicity of I-72 + methoxyfenozide, Example 53, Table 53; conditions: in Oryza sativa, 72 h
Procedure: as §10, §1
Experimental method: first, tender rice stems were selected and dipped in the prepared pesticide solution for 10 s in the order from low dosage to high dosage according to the experimental design. After natural air-drying in the shade, they were placed in a 9-cm-diameter Petri dish with filter paper, and uniform and healthy test insects were introduced, with 10 insects for each treatment and 3 replicates for each treatment. In addition, a blank control was set up.
as §3

[16] = system: Aphis gossypii Glover nymphs; experiment: Joint toxicity of I-72 + nitenpyram, Example 67, Table 67; conditions: 48 h
Procedure: Test target: Aphis gossypii Glover nymphs, a sensitive strain reared indoors.
as §1
Experimental method: first, cotton leaves with uniform and consistent Aphis gossypii were selected, with about 30-40 insects on each leaf. Then, they were evenly sprayed with the pesticide solution in the order from low dosage to high dosage according to the experimental design, with 1.5 mL for each leaf and 3 replicates for each treatment. In addition, a blank control was set up.
as §13

[17] = system: 2nd-instar larvae of Spodoptera exigua Hübner; experiment: whole plant or invertebrate; conditions: A = compound I-72, B = tetrachlorantraniliprole; cabbage leaf dipping; 72 hours
Procedure: as §14, §1, §15, §6

[18] = system: 2nd-instar larvae of Plutella xylostella; experiment: Joint toxicity of I-72 + tetraniliprole, Example 58, Table 58; conditions: A = compound I-72, B = tetraniliprole; cabbage leaf dipping; 72 hours
Procedure: Test target: 2nd-instar larvae of Plutella xylostella.
as §1, §15, §3

[19] = system: 3rd-instar larvae of Yponomeuta evonymallus (Linnaeus); experiment: Joint toxicity of I-72 + thiamethoxam, Example 66, Table 66; conditions: A = compound I-72, B = thiamethoxam; leaf dipping; 72 hours
Procedure: Test target: 3rd-instar larvae of Yponomeuta evonymallus (Linnaeus).
as §1
Experimental method: first, Hylotelephium spectabile leaves were selected and dipped in the prepared pesticide solution for 10 s in the order from low dosage to high dosage according to the experimental design. After natural air-drying in the shade, they were placed in a 9-cm-diameter Petri dish with filter paper, and uniform and healthy test insects were introduced, with 10 insects for each treatment and 3 replicates for each treatment. In addition, a blank control was set up.
as §6

[20] = system: Thrips flavus Schrank nymphs; experiment: Joint toxicity of I-72 + tolfenpyrad, Example 62, Table 62; conditions: in Solanum melongena, 48 h
Procedure: Test target: Thrips flavus Schrank nymphs.
as §1
Experimental method: first, eggplant seedlings with Thrips flavus Schrank were selected, and the base number was counted. Then, uniform spraying was performed with the pesticide solution in the order from low to high doses according to the experimental design, with 2 mL for each seedling and 3 replicates for each treatment. In addition, a blank control was set up.
as §13

[21] = system: Lipaphis erysimi (Kaltenbach); experiment: Joint toxicity of I-72 + pyrethrin, Example 47, Table 47; conditions: A = compound I-72, B = pyrethrin; cabbage leaf spraying; 48 hours
Procedure: Test target: Lipaphis erysimi (Kaltenbach).
as §1
Experimental method: first, cabbage leaves with uniform and consistent Lipaphis erysimi (Kaltenbach) were selected, with about 30-40 insects on each leaf. Then, they were evenly sprayed with the pesticide solution in the order from low dosage to high dosage according to the experimental design, with 1.5 mL of the solution for each leaf and 3 replicates for each treatment. In addition, a blank control was set up.
as §13

CC1(C)[C@H](C(=O)O[C@H](C#N)c2cccc(Oc3ccccc3)c2)[C@@H]1/C=C(\Cl)C(F)(F)F (racemic) [lambda-cyhalothrin]
LC50 [1]: 1.83 µg/mL

C/C(=N\C#N)N(C)Cc1ccc(Cl)nc1 [acetamiprid]
LC50 [2]: 7.92 µg/mL

CC(C)N1C(=O)N(c2ccccc2)CS/C1=N\C(C)(C)C [buprofezin]
LC50 [3]: 1.98 µg/mL

CNC(=O)c1cc(Cl)cc(C)c1NC(=O)c1cc(Br)nn1-c1ncccc1Cl [chlorantraniliprole]
LC50 [4]: 1.2 µg/mL

CN/C(=N\[N+](=O)[O-])NCc1cnc(Cl)s1 [clothianidin]
LC50 [5]: 0.513 µg/mL (≈ 2.05 µM)

CNC(=O)c1cc(C#N)cc(C)c1NC(=O)c1cc(Br)nn1-c1ncccc1Cl [cyantraniliprole]
LC50 [6]: 1.18 µg/mL
LC50 [7]: 36.2 µg/mL

Nc1nc(N)nc(NC2CC2)n1 [cyromazine]
LC50 [8]: 5.06 µg/mL

CC1(C)[C@H](C(=O)O[C@H](C#N)c2cccc(Oc3ccccc3)c2)[C@@H]1C=C(Br)Br [deltamethrin]
LC50 [9]: 6.76 µg/mL

CCOc1ccc(C(C)(C)COCc2cccc(Oc3ccccc3)c2)cc1 [etofenprox]
LC50 [10]: 25.4 µg/mL

CC(C)C(C(=O)OC(C#N)c1cccc(Oc2ccccc2)c1)c1ccc(Cl)cc1 (stereo not drawn) [fenvalerate]
LC50 [11]: 34.4 µg/mL

Cc1cc(C(F)(C(F)(F)F)C(F)(F)F)ccc1NC(=O)c1cccc(I)c1C(=O)NC(C)(C)CS(C)(=O)=O [flubendiamide]
LC50 [12]: 1.02 µg/mL

O=C(NC(=O)c1c(F)cccc1F)Nc1cc(Cl)c(OC(F)(F)C(F)F)c(Cl)c1 [hexaflumuron]
LC50 [13]: 5.57 µg/mL

O=C(NC(=O)c1c(F)cccc1F)Nc1cc(Cl)c(OC(F)(F)C(F)C(F)(F)F)cc1Cl (stereo not drawn) [lufenuron]
LC50 [14]: 12.9 µg/mL

COc1cccc(C(=O)NN(C(=O)c2cc(C)cc(C)c2)C(C)(C)C)c1C [methoxyfenozide]
LC50 [15]: 8.95 µg/mL

CCN(Cc1ccc(Cl)nc1)/C(=C/[N+](=O)[O-])NC [nitenpyram]
LC50 [16]: 0.384 µg/mL

CNC(=O)c1cc(Cl)cc(Cl)c1NC(=O)c1cc(Br)nn1-c1ncc(Cl)cc1Cl [tetrachlorantraniliprole]
LC50 [17]: 0.6491 µg/mL (≈ 1.21 µM)

CNC(=O)c1cc(C#N)cc(C)c1NC(=O)c1cc(Cn2nnc(C(F)(F)F)n2)nn1-c1ncccc1Cl [tetraniliprole]
LC50 [18]: 0.0810 µg/mL

CN1COCN(Cc2cnc(Cl)s2)/C1=N\[N+](=O)[O-] [thiamethoxam]
LC50 [19]: 358.9351 µg/mL

CCc1nn(C)c(C(=O)NCc2ccc(Oc3ccc(C)cc3)cc2)c1Cl [tolfenpyrad]
LC50 [20]: 28.6 µg/mL

pyrethrin
LC50 [21]: 55.3268 µg/mL
